Source: ChEMBL document CHEMBL2331263, “Non-benzimidazole containing inhibitors of respiratory syncytial virus” (Bioorg Med Chem Lett, 2013)
pIC50: −log10 of the molar value.

Key:
Liver microsomes = test: Apparent intrinsic clearance in rat liver microsomes assessed per mg protein
[1] = Oral absorption in rat; type: ADME, organism-based; settings: in vivo
[2] = Drug excretion in rat urine; type: ADME; settings: read-out: Drug excretion
[3] = Octanol-neutral buffer partition co-efficient, log D of the compound at pH 7.4
[4] = Apparent permeability in dog RRCK cells; settings: MDCK
[5] = Half life in iv dosed rat; settings: in vivo
[6] = Volume of distribution in steady state in rat; settings: in vivo
[7] = Oral bioavailability in rat; settings: in vivo
[8] = Intrinsic clearance in rat plasma
Hepatocyte = test: Apparent intrinsic clearance in human hepatocytes assessed per million cells
[9] = Apparent intrinsic clearance in human liver microsomes
[10] = test system: Respiratory syncytial virus; test: Antiviral activity against Respiratory syncytial virus A2 infected in A549 cells after 3 days by CelltitreGlo assay; type: functional, organism-based; settings: human respiratory syncytial virus, A2, A549, 72 h
[11] = Apparent permeability in MDCK cells selected for low expression of efflux transporters; settings: dog
[12] = Apparent intrinsic clearance in rat liver microsomes; type: ADME, Microsome; settings: read-out: CLH(app)

logD [3]	microsomal CLint [9]	pIC50 [10]	Papp [11]	Structure (SMILES)	other results
1.3	< 8 µL/min/mg	7.24	4 ×10⁻⁶ cm/s	O=c1n(Cc2nc(-c3nccs3)cn2CCCCO)c2cnccc2n1C1CC1	CLH(app) (Liver microsomes): 21.1 µL/min; Fa [1]: > 60%; dose excreted [2]: 16%; Papp [4]: 4 ×10⁻⁶ cm/s; half-life [5]: 1.5 h; Vd [6]: 3.5 L/kg; bioavailability [7]: 34%; CLint scaled [8]: 48 mL/min/kg; CLH(app) (Hepatocyte): < 2.2 µL/min
-0.5	15 µL/min/mg	7.26	–	COC(=O)N1CCC(n2c(=O)n(Cc3nc(C)c(C)n3CCCCO)c3cnccc32)CC1	Papp [4]: 1 ×10⁻⁶ cm/s
1.2	< 8 µL/min/mg	6.58	4 ×10⁻⁶ cm/s	O=c1n(Cc2nc(-c3cccnc3)cn2CCCCO)c2cnccc2n1C1CC1	microsomal CLint [12]: 44 µL/min/mg; CLint scaled [8]: 95 mL/min/kg; CLH(app) (Hepatocyte): < 2.2 µL/min
1.4	–	7.39	3 ×10⁻⁶ cm/s	Cc1cc(CCn2cc(-c3cccnc3)nc2Cn2c(=O)n(C3CC3)c3ccncc32)on1	–
0.8	< 8 µL/min/mg	4.98	–	Cn1ccnc1-c1cn(CCCCO)c(Cn2c(=O)n(C3CC3)c3ccncc32)n1	–
3.9	–	7.19	–	CC(C)n1nc(Cn2nc3ccccc3c2OCCCCO)c2ccccc21	–
0.9	< 8 µL/min/mg	5.29	–	Cc1nnc(-c2cn(CCCCO)c(Cn3c(=O)n(C4CC4)c4ccncc43)n2)s1	–
–	–	7.89	–	O=c1n(Cc2nc3ccccc3n2CCCCO)c2cnccc2n1C1CC1	–
1.5	32 µL/min/mg	7.02	2 ×10⁻⁶ cm/s	Cc1ccc(CCn2cc(-c3cccnc3)nc2Cn2c(=O)n(C3CC3)c3ccncc32)cn1	–
4.4	242 µL/min/mg	4.64	8 ×10⁻⁶ cm/s	CC(C)n1nc(CCn2nc(CCCCO)c3ccccc32)c2cnccc21	–
1.8	65 µL/min/mg	8.40	–	O=c1n(Cc2nc3c(n2CCCCO)CCCC3)c2cnccc2n1C1CC1	Papp [4]: 4 ×10⁻⁶ cm/s
3.5	246 µL/min/mg	6.00	16 ×10⁻⁶ cm/s	CC(C)n1nc(Cn2nc3ccccc3c2OCCCO)c2ccccc21	–
3.6	> 320 µL/min/mg	6.39	12 ×10⁻⁶ cm/s	CC(C)n1nc(Cn2nc3c(c2CCCCO)CCCC3)c2ccccc21	–
0.8	9 µL/min/mg	4.91	–	COC(=O)c1nc(Cn2c(=O)n(C3CC3)c3ccncc32)n(CCCCO)c1C	Papp [4]: 2 ×10⁻⁶ cm/s
2	110 µL/min/mg	< 4.85	–	COC(=O)N1CCC(n2ccc(Cc3nc4ccccc4n3CCCCO)n2)CC1	Papp [4]: 6 ×10⁻⁶ cm/s
2.9	462 µL/min/mg	6.77	32 ×10⁻⁶ cm/s	CC(C)n1nc(Cn2c(=O)c3ccccc3n2CCCCO)c2ccccc21	–
4.4	–	6.66	–	CC(C)n1nc(Cn2nc3ccccc3c2CCCCO)c2ccccc21	–
1.4	17 µL/min/mg	6.86	4 ×10⁻⁶ cm/s	Cc1cc(CCn2cc(-c3cccnc3)nc2Cn2c(=O)n(C3CC3)c3ccncc32)no1	–
0.9	< 8 µL/min/mg	< 4.70	–	Cn1nccc1-c1cn(CCCCO)c(Cn2c(=O)n(C3CC3)c3ccncc32)n1	–
2	< 8 µL/min/mg	6.96	–	O=c1n(Cc2nc(Cl)c(Cl)n2CCCCO)c2cnccc2n1C1CC1	–
0.9	10 µL/min/mg	5.65	–	Cc1ncc(CCn2cc(-c3cccnc3)nc2Cn2c(=O)n(C3CC3)c3ccncc32)o1	–
3.8	78 µL/min/mg	6.56	14 ×10⁻⁶ cm/s	CC(C)n1nc(Cn2nc3ccccc3c2CCCO)c2ccccc21	–
0.2	9 µL/min/mg	5.22	–	COCc1cn(CCCCO)c(Cn2c(=O)n(C3CC3)c3ccncc32)n1	Papp [4]: 1 ×10⁻⁶ cm/s
3.4	44 µL/min/mg	9.30	–	COC(=O)N1CCC(n2c(=O)n(Cc3nc4ccccc4n3CCCCO)c3ccccc32)CC1	Papp [4]: 36 ×10⁻⁶ cm/s
0.6	< 8 µL/min/mg	6.63	1 ×10⁻⁶ cm/s	O=c1n(Cc2nc(-c3ncccn3)cn2CCCCO)c2cnccc2n1C1CC1	CLH(app) (Hepatocyte): < 2.2 µL/min
0.6	< 8 µL/min/mg	7.02	–	O=c1n(Cc2nc(-c3ncco3)cn2CCCCO)c2cnccc2n1C1CC1	–
2.4	–	5.53	–	CC(C)n1nc(Cn2nc3ccccc3c2C(=O)NCCCO)c2ccccc21	–
1.5	11 µL/min/mg	< 4.70	–	CC(=O)N1CCC(Cn2nc3ccccc3c2CCCCO)CC1	Papp [4]: 2 ×10⁻⁶ cm/s
1.4	< 8 µL/min/mg	6.63	5 ×10⁻⁶ cm/s	O=c1n(Cc2nc(-c3ccccn3)cn2CCCCO)c2cnccc2n1C1CC1	CLH(app) (Hepatocyte): < 2.2 µL/min
